In patent US20070292351A1, “Assay for efficacy of histone deacetylase inhibitors” (Methylgene, Inc., priority 2006, published 2007):

Assays:
[1] = system: histone H3 acetylation; experiment: Histone acetylation of nuclear extracts from white blood cells; format: in vivo, human; details: AML Patient A with clinical response (FIG. 9)
Description: Human white peripheral cells were resuspended in 50 ul cold lysis buffer (10 mM Tris-HCl pH8.0, 1.5 mM MgCl2, 5 mM KCl, 0.5% NP-40, 5 mM Na butyrate plus protease inhibitors) and incubated on ice for 10 min. Cells were centrifuged at […] in an IEC Micromax centrifuge (Fisher Scientific Ltd., Nepean, Ontario) at 4° C. for 10-15 min and nuclei collected. Nuclei were washed with 50 ul lysis buffer by centrifugation at 2000 rpm at 4° C. for 10-15 min. Nuclei were resuspended in 35 ul ice cold Nuclear Lysis buffer (50 mM HEPES pH7.5, 500 mM NaCl, 1% NP-40, 1 mM EDTA, 10% glycerol, 5 mM NaButyrate and protease inhibitors) and sonicated 10 seconds using a VirSonic 300 sonicator (VirTis, Gardiner, N.Y.). Lysed nuclei were centrifuged at 15000 rpm at 4° C. for 5 min and supernatant collected for ELISA.
Black plates were coated with 50 ul of diluted anti-Histone antibodies (H11-4, Chemicon, Temecula, Calif.) (1:1000 in TBS) and incubated at ambient temperature for 2 hours. Plates were washed twice with 50 ul of PBS and blocked with 1% BSA+0.1% TritonX-100 in PBS (50 ul) for 45 minutes. […] Fluoroscence development was allowed for 60 minutes in foil and plates were read on a fluorometer (Gemini XS, Molecular Devices, Sunnyvale, Calif.) at Excitation at 550 nm and emission at 610 nm with a cutoff of 590 nm (Auto PMT, 15 reads/well). Data were analyzed using Excel.

[2] = system: peripheral white cells; experiment: Cytokine/chemokine transcription in peripheral white cells treated ex vivo; format: cell-based, human
Description: FIG. 15 Induction of transcription of IL-6, IL-8, IL-1b, MIP1b cytokine/chemokines by MGCD0103 in peripheral white cells ex vivo from a MDS patient and in vivo in an AML patient with response (Patient J).
Whole blood from either consenting healthy volunteers or consenting patients was centrifuged at 2500 rpm for 10 minutes at ambient temperature in a Sorvall RT-7 centrifuge (Mandel Scientific Co., Guelph, Ontario). Plasma was removed and buffy coat was collected. Five volumes of Erythrocyte Lysis Buffer (EL) (Qiagen Canada Inc., Mississauga, Ontario) were added into buffy coat. Buffy coat was incubated on ice for 20 minutes before it was centrifuged at 400 g for 10 minutes at 4° C. Supernatant was removed and buffy coat was washed twice with EL buffer and re-centrifuged. Buffy coat was resuspended in RPMI media and cells were counted with trypan blue exclusion. To isolate PBMCs, buffy coat cells were centrifuged over Lymphoprep (Axis-Shield, 1114544), and any remaining erythrocytes in the sample were lysed by treatment with EL lysis buffer (Qiagen, 79217). The cell pellets are washed and then re-suspended in RPMI containing 10% FBS.

[3] = system: implanted human NSCLC H460 tumors; experiment: Semi-quantitative PCR of p21 and MT3 in H460 tumors in nude mice; format: in vivo, nude mice (Balb/c); details: 100 mg/kg oral
Description: (§1) FIG. 5 Induction of MT3 and p21 in implanted human NSCLC H460 tumors in vivo in nude mice. Nude mice (Balb/c) bearing human H460 tumors were treated with 100 mg/kg MGCD0103 or 0.5% HEC (Vehicle) by oral administration. After 6 h or 24 h, three mice from each group were sacrificed, their tumors harvested and analyzed. Panel A: p21 and MT3 RNA levels quantified by conventional semi-quantitative PCR, normalized to β-actin. Panel B: H4Ac level detected by immunoblot analysis, normalized to total histones.
RNA was extracted from 8×10^6 cells using the Qiagen RNeasy Mini kit (cat#74106, Qiagen, Missisauga Ont.) following the manufacturer's instructions. RT reaction was performed using the Expand Reverse Transcriptase kit from Roche (Cat#1 785 834 Roche Applied Biosciences, Laval, Que) with 1 μg total RNA together with 1 μl oligo(dT) primer (cat#y01212, Invitrogen-Canada, Burlington, Ont). cDNA was synthesized using an Eppendorf Mastercycler gradient PCR apparatus (Brinkmann Instruments Canada LTD., Mississauga, Ontario), using a two cycle protocol. For the 1st cycle reaction mixture (0.5 μl H2O, 4 μl of 5× Buffer, 2 μl DTT, 2 ul of 10 mM dNTPs, 0.5 μl RNAsin (cat#N211B, Promega, Fisher Scientific, Whitby, Ont.) and […] of the Expand Reverse Transcriptase (Cat#1785834, Roche, Laval, Quebec)) was incubated at 65° C. for 10 minutes and then set on ice. A second cycle was performed at 42° C. for 1 hour. The resulting cDNA products were kept at 4° C. until used.
One ul of the resulting cDNA was used for every amplification reaction with 18.9 ul H2O, 1.25 ul of 10 mM dNTPs, 0.5 ul of each primer pair, 2.5 ul of 10× Buffer. The PCR reaction was carried out in an Eppendorf Mastercycler gradient. The sequences of the primers used for the amplification of selected biomarkers, as well as the details of the PCR reaction cycles are featured below. All buffers came from Expand Long Template PCR system (Roche, Laval, Quebec, Cat#11681842001). All primers were synthesized by Invitrogen (Invitrogen-Canada, Burlington, Ont.) […]

[4] = system: H4 acetylation in human H460 tumors; experiment: H4Ac immunoblot analysis of H460 tumors in nude mice; format: in vivo, nude mice (Balb/c); details: 100 mg/kg oral, immunoblot normalized to total histones (FIG. 5B)
Description: as §1
Human non-small cell lung carcinoma NSCLC-H460 cells (2 million) were injected subcutaneously in the animal flank and allowed to form solid tumors. Tumor fragments were passaged in animals for a minimum of three times before their use. Tumor fragments (about 30 mg) were implanted subcutaneously through a small surgical incision under general anesthesia to Balb/cA female nude mice (6-8 weeks old). Recipient animals were treated with either vehicle (0.1 N HCl) or MGCD0103 (2HBr salt, in 0.1 N HCl) 100 mg/kg orally. Tumors were harvested after one dose of either 6 hour or 24 hours post administration of vehicle or MGCD0103. Each experimental group contained 3 animals. Tumor tissues were deposited in RNAlater (Qiagen, Missisauga Ontario) for total RNA extraction.

SMILES: Nc1ccccc1NC(=O)c1ccc(CNc2nccc(-c3cccnc3)n2)cc1 [MGCD0103]
- induction of histone H3 acetylation in peripheral white cells [1]: induction
- induction of transcription of IL-6, IL-8, IL-1b, MIP1b ([2]; peripheral white cells ex vivo from a MDS patient (Patient J) (FIG. 15)): induction
- induction of transcription of IL-6, IL-8, IL-1b, MIP1b ([2]; peripheral white cells from healthy volunteers treated ex vivo (FIG. 15)): No such induction
- persistence of gene induction (p21, MT3) in tumors [3]: at least 24 h
- induction of MT3 RNA in tumors ([3]; 6 h or 24 h (FIG. 5A)): induction
- induction of p21 RNA in tumors ([3]; 6 h or 24 h (FIG. 5A)): induction
- H4 acetylation in tumors [4]: detectable only after 6 h of treatment
